Assay type in all cases: cell-based
Data set [1] concerns MDA-MB-231 (human breast cancer) cell line. As to the kind of experiment: MTT cell viability assay in MDA-MB-231 cells. The conditions noted are these: for viability at 10 µM / viability at 25 µM / viability at 50 µM: MDA-MB-231, 72 h; for viability at 10 µM / viability at 25 µM / viability at 50 µM / Cell Viability (%) ± SD: 72 h, MTT. Here is the method:
IC50 values were determined by plotting values of percent cell viability against concentration of each of these compounds. […] The experiments were performed in triplicates, n = 3 and ± SE value was calculated for each data point.
The human breast cancer cell line MDA-MB-231 were cultured in Dulbecco’s Modified Eagle’s Medium (DMEM) (Gibco, St. Louis, USA) supplemented with 10% heat inactivated FBS (Fetal Bovine Serum, Gibco, USA) and 1% penicillin-streptomycin (Gibco Canada) in humidified CO2 incubator at 37 °C. The cells were maintained as a monolayer in 100 mm culture plate. The cells used for each experiment were of less than 8 passage number. Sub culturing of cells was performed every third day, followed by trypsin EDTA treatment.
Cell viability assay was performed as per standard protocols. […] Ltd, India). In brief, this is a homogeneous, colorimetric method for determining the number of viable cells in proliferation, cytotoxicity or chemosensitivity assays. MTT is bio reduced by cells into a formazan product that is soluble in the tissue culture medium. […] The absorbance of the formazan product at 595 nm was measured directly from 96-well assay plates without additional processing using a multimode plate reader (Bio-Rad) (iMark, India), as absorbance is directly proportional to the number of viable cells in culture. The percentage of viable cells in each group is determined with respect to the untreated control cells.

For data set [2], the system named is MCF-7 breast cancer cells. Put plainly: MTT cell viability assay in MCF-7 cells. As to conditions: Homo sapiens, MCF7, read-out: Cell Viability (%) ± SD. (In general: Tetrazolium assays rely on reduction of a dye to a coloured formazan, in cell work by metabolically active cells.)
A short description of data set [3]: MTT cell viability assay in normal MCF-10A cells. The conditions noted are these: human, MCF-10A normal mammary epithelial cells, read-out: Cell Viability (%) ± SD. From the text:
(§1) MDA-MB-231 represents a specific subtype, known as the triple negative breast cancer (TNBC). […] We also included normal mammary epithelial MCF-10A cells in our experiments to confirm if the growth-inhibitory activities of the selected compounds are truly cancer cell-specific. […] Furthermore, none of these compounds did have any growth inhibitory activity against normal breast epithelial cell (MCF-10A). The IC50 values for these compounds against MDA-MB-231 cells (Fig. 2) are also included in Table 4 for comparison. Cell viability assay was performed as per standard protocols. After 72 h of cell incubation in the presence or absence of each compound, cell viability was evaluated by using MTT ((3-(4,5-dimethylthiazol-2-yl)-2,5-diphenyltetrazolium bromide)) (Himedia Pvt. Ltd, India). In brief, this is a homogeneous, colorimetric method for determining the number of viable cells in proliferation, cytotoxicity or chemosensitivity assays. MTT is bio reduced by cells into a formazan product that is […]. After 72 h of compound treatment, the medium was removed and 100 μL of MTT (0.5 mg ml^−1 in media) was added to the cells and kept in the dark for 3 h at 37 °C in the CO2 incubator and the formazan formed was dissolved in 100 μL DMSO (Dimethyl Sulfoxide). The absorbance of the formazan product at 595 nm was measured directly from 96-well assay plates without additional processing using a multimode plate reader (Bio-Rad) (iMark, India), as absorbance is directly proportional to the number of viable cells in culture. The percentage of viable cells in each group is determined with respect to the untreated control cells.

The next data set deals with MDA-MB-453 cells. Put plainly: MTT cell viability assay in MDA-MB-453 cells. The conditions noted are these: Homo sapiens, read-out: Cell Viability (%) ± SD.
Description: as §1

The mark [4] stands for this setting: Homo sapiens, MDA-MB-231, 10 µM, read-out: Cell Viability (%) ± SD.
Where [5] appears, read: Homo sapiens, MDA-MB-231, 25 µM, read-out: Cell Viability (%) ± SD.
Where [6] appears, read: Homo sapiens, MDA-MB-231, 50 µM, read-out: Cell Viability (%) ± SD.

The values below come from PMC7170901, “Design and efficient synthesis of pyrazoline and isoxazole bridged indole C-glycoside hybrids as potential anticancer agents” (Scientific Reports, 2020).

By viability is commonly meant a per cent measure of how many cells are alive, often set against a control.

For `O=C(/C=C/c1c[nH]c2ccc([N+](=O)[O-])cc12)C[C@@H]1O[C@H](CO)[C@H](O)[C@H](O)[C@H]1O` [Compound 14, (E)-4-(5-nitro-1H-indol-3-yl)-1-((2S,3R,4R,5R,6R)-3,4,5-trihydroxy-6-(hydroxymethyl)tetrahydro-2H-pyran-2-yl)but-3-en-2-one], the viability at 10 µM in data set [1] (setting [4]) was found to be 73.6 ± 11.8%; in data set [2] (MCF-7, 10 µM), 69.8 ± 1.8%; in the data set with MDA-MB-453 cells (MDA-MB-453, 10 µM), 82.2 ± 11.5%. In addition, the viability at 25 µM was determined as 59 ± 12.5% in data set [1] (setting [5]); 66.8 ± 3% in data set [2] (MCF-7, 25 µM); 65.3 ± 5.8% with MDA-MB-453 cells (MDA-MB-453, 25 µM). In addition, in data set [1] (setting [6]), the viability at 50 µM was determined as 60.6 ± 5.61%. The viability at 1 µM in data set [2] (MCF-7, 1 µM) came out at 100 ± 4.5%; in the data set on MDA-MB-453 cells (MDA-MB-453, 1 µM), 80.8 ± 3.2%. Besides, in data set [3] (25 µM), the viability at 72 h, 25 µM came to 86.8 ± 2.8%. Further, the viability at 72 h, 50 µM in data set [3] (50 µM) is 84.6 ± 0.7%. For the same molecule, the viability at 72 h, 100 µM in data set [3] (100 µM) was 80 ± 1.5%.

For the molecule `OC[C@H]1O[C@@H](Cc2cc(-c3c[nH]c4ccc(Cl)cc34)on2)[C@@H](O)[C@@H](O)[C@@H]1O` [Compound 44, (2 S,3 S,4 R,5 S,6 R)-2-((5-(5-chloro-1H-indol-3-yl)isoxazol-3-yl)methyl)-6-(hydroxymethyl) tetrahydro-2H-pyran-3,4,5-triol], in data set [1] (setting [4]), the viability at 10 µM was 83.9 ± 4.08%. In addition, the viability at 25 µM in data set [1] (setting [5]) was 82.9 ± 5.28%. Also, in data set [1] (setting [6]), the viability at 50 µM turned out to be 81.7 ± 3.45%.

Regarding `CC1=CC(=O)c2ccccc2C1=O` [Menadione, menadione, reference compound], the viability at 20 µM in data set [1] (Homo sapiens, MDA-MB-231, MDA-MB-231, positive control at 20 µM, read-out: Cell Viability (%) ± SD) is 20.8 ± 8.7%.

Turning to `COCCn1c2c([n+](Cc3cnccn3)c1C)C(=O)c1ccccc1C2=O` [YM155, reference compound], the viability at 0.02 µM was 27.4 ± 4.93% in data set [1] (Homo sapiens, MDA-MB-231, MDA-MB-231, positive control at 20 nM, read-out: Cell Viability (%) ± SD); 37.2 ± 1.7% in data set [2] (MCF-7, positive control at 20 nM); 33.2 ± 1.5% with MDA-MB-453 cells (MDA-MB-453, positive control at 20 nM). Besides, in data set [3] (positive control at 20 nM), the viability at 72 h, 0.02 µM worked out at 48.2 ± 1.6%.

Consider “(E)-4-(1H-indol-3-yl)-1-((2S,3S,4R,5S,6R)-3,4,5-trihydroxy-6-(hydroxymethyl) tetrahydro-2H-pyran-2-yl) but-3-en-2-one [Compound 19]”, for which the “Cell Viability (%) ± SD” value in data set [1] (MDA-MB-231, 10 µM) is reported as 102.51 ± 10.39%; in data set [1] (MDA-MB-231, 25 µM), 89.20 ± 28.63%; in data set [1] (MDA-MB-231, 50 µM), 71.48 ± 6.24%.
